Species: Rattus norvegicus
Experiment: DrugMatrix - Regimen: Daily Repeat
Format: toxicity, organism-based, Sprague-Dawley
Set-up: regimen Daily Repeat, gender Male, age 6-8 weeks
Settings: in vivo, po, route oral GAVAGE, vehicle 100 % WATER; for ABSOLUTE BASOPHIL / ABSOLUTE EOSINOPHIL / ABSOLUTE LYMPHOCYTE / ABSOLUTE MONOCYTE / ABSOLUTE SEGMENTED NEUTROPHIL / BASOPHIL / EOSINOPHIL / ERYTHROCYTE COUNT / HEMATOCRIT / HEMOGLOBIN / LEUKOCYTE COUNT / LYMPHOCYTE / MEAN CORPUSCULAR HEMOGLOBIN / MEAN CORPUSCULAR HEMOGLOBIN CONCENTRATION / MEAN CORPUSCULAR VOLUME / MONOCYTE / NEUTROPHIL / NUCLEATED RED BLOOD CELLS / PLATELET COUNT: tissue Blood; for ALANINE AMINOTRANSFERASE / ALKALINE PHOSPHATASE / ASPARTATE AMINOTRANSFERASE / BLOOD UREA NITROGEN / CARBON DIOXIDE / CHLORIDE / CHOLESTEROL / CREATINE PHOSPHOKINASE / CREATININE / GLUCOSE / LACTATE DEHYDROGENASE / LIPASE / PHOSPHORUS / POTASSIUM / SODIUM / TOTAL BILIRUBIN / TOTAL PROTEIN / URIC ACID: tissue Plasma
[1] = 0 mg/kg, 72 h, dose level Control, time 3 day
[2] = 0 mg/kg, 120 h, dose level Control, time 5 day
[3] = […], 72 h, dose 7.5 mg/Kg, dose level Low, time 3 day
[4] = […], 120 h, dose 7.5 mg/Kg, dose level Low, time 5 day

CNC1=Nc2ccc(Cl)cc2C(c2ccccc2)=[N+]([O-])C1 [CHLORDIAZEPOXIDE]
ABSOLUTE BASOPHIL [1]: 0 CELLS/uL | ABSOLUTE EOSINOPHIL [1]: 40 CELLS/uL | ABSOLUTE LYMPHOCYTE [1]: 13599.5 CELLS/uL | ABSOLUTE MONOCYTE [1]: 239.33 CELLS/uL | ABSOLUTE SEGMENTED NEUTROPHIL [1]: 1021.17 CELLS/uL | BASOPHIL [1]: 0% | EOSINOPHIL [1]: 0.33% | ERYTHROCYTE COUNT [1]: 5.71 x10E6/uL | HEMATOCRIT [1]: 36.35% | HEMOGLOBIN [1]: 14.05 G/DL | LEUKOCYTE COUNT [1]: 14.9 x10E3/uL | LYMPHOCYTE [1]: 91% | MEAN CORPUSCULAR HEMOGLOBIN [1]: 24.62 pg | MEAN CORPUSCULAR HEMOGLOBIN CONCENTRATION [1]: 38.65 G/DL | MEAN CORPUSCULAR VOLUME [1]: 63.7 fL | MONOCYTE [1]: 1.5% | NEUTROPHIL [1]: 7.17% | NUCLEATED RED BLOOD CELLS [1]: 0.33 /100WBC | PLATELET COUNT [1]: 1225.5 x10E3/uL | ALANINE AMINOTRANSFERASE [1]: 48.5 u/L | ALKALINE PHOSPHATASE [1]: 390.83 u/L | ASPARTATE AMINOTRANSFERASE [1]: 89 u/L | BLOOD UREA NITROGEN [1]: 14.83 mg/dL | CARBON DIOXIDE [1]: 24.83 mmol/L | CHLORIDE [1]: 100.83 MEQ/L | CHOLESTEROL [1]: 72.5 mg/dL | CREATINE PHOSPHOKINASE [1]: 503 u/L | CREATININE [1]: 0.2 mg/dL | GLUCOSE [1]: 163 mg/dL | LACTATE DEHYDROGENASE [1]: 316.83 u/L | LIPASE [1]: 9.83 u/L | PHOSPHORUS [1]: 11.57 mg/dL | POTASSIUM [1]: 6.16 MEQ/L | SODIUM [1]: 142.62 MEQ/L | TOTAL BILIRUBIN [1]: 0.2 mg/dL | TOTAL PROTEIN [1]: 5.8 G/DL | URIC ACID [1]: 1.65 mg/dL | ABSOLUTE BASOPHIL [2]: 0 CELLS/uL | ABSOLUTE EOSINOPHIL [2]: 21 CELLS/uL | ABSOLUTE LYMPHOCYTE [2]: 14288.5 CELLS/uL | ABSOLUTE MONOCYTE [2]: 205.33 CELLS/uL | ABSOLUTE SEGMENTED NEUTROPHIL [2]: 968.5 CELLS/uL | BASOPHIL [2]: 0% | EOSINOPHIL [2]: 0.17% | ERYTHROCYTE COUNT [2]: 5.83 x10E6/uL | HEMATOCRIT [2]: 36.53% | HEMOGLOBIN [2]: 14.4 G/DL | LEUKOCYTE COUNT [2]: 15.48 x10E3/uL | LYMPHOCYTE [2]: 92% | MEAN CORPUSCULAR HEMOGLOBIN [2]: 24.72 pg | MEAN CORPUSCULAR HEMOGLOBIN CONCENTRATION [2]: 39.43 G/DL | MEAN CORPUSCULAR VOLUME [2]: 62.68 fL | MONOCYTE [2]: 1.33% | NEUTROPHIL [2]: 6.5% | NUCLEATED RED BLOOD CELLS [2]: 0.17 /100WBC | PLATELET COUNT [2]: 1280.5 x10E3/uL | ALANINE AMINOTRANSFERASE [2]: 50 u/L | ALKALINE PHOSPHATASE [2]: 380.17 u/L | ASPARTATE AMINOTRANSFERASE [2]: 82.67 u/L | BLOOD UREA NITROGEN [2]: 15.33 mg/dL | CARBON DIOXIDE [2]: 27.17 mmol/L | CHLORIDE [2]: 100.33 MEQ/L | CHOLESTEROL [2]: 60.67 mg/dL | CREATINE PHOSPHOKINASE [2]: 441.5 u/L | CREATININE [2]: 0.16 mg/dL | GLUCOSE [2]: 146 mg/dL | LACTATE DEHYDROGENASE [2]: 189.33 u/L | LIPASE [2]: 9.17 u/L | PHOSPHORUS [2]: 11.67 mg/dL | POTASSIUM [2]: 6.86 MEQ/L | SODIUM [2]: 142.33 MEQ/L | TOTAL BILIRUBIN [2]: 0.2 mg/dL | TOTAL PROTEIN [2]: 6.12 G/DL | URIC ACID [2]: 1.82 mg/dL | ABSOLUTE BASOPHIL [3]: 0 CELLS/uL | ABSOLUTE EOSINOPHIL [3]: 54 CELLS/uL | ABSOLUTE LYMPHOCYTE [3]: 12748.67 CELLS/uL | ABSOLUTE MONOCYTE [3]: 258 CELLS/uL | ABSOLUTE SEGMENTED NEUTROPHIL [3]: 2072.67 CELLS/uL | BASOPHIL [3]: 0% | EOSINOPHIL [3]: 0.33% | ERYTHROCYTE COUNT [3]: 5.45 x10E6/uL | HEMATOCRIT [3]: 34.1% | HEMOGLOBIN [3]: 13.23 G/DL | LEUKOCYTE COUNT [3]: 15.13 x10E3/uL | LYMPHOCYTE [3]: 84.33% | MEAN CORPUSCULAR HEMOGLOBIN [3]: 24.3 pg | MEAN CORPUSCULAR HEMOGLOBIN CONCENTRATION [3]: 38.8 G/DL | MEAN CORPUSCULAR VOLUME [3]: 62.57 fL | MONOCYTE [3]: 1.67% | NEUTROPHIL [3]: 13.67% | NUCLEATED RED BLOOD CELLS [3]: 0.33 /100WBC | PLATELET COUNT [3]: 1319 x10E3/uL | ALANINE AMINOTRANSFERASE [3]: 50.33 u/L | ALKALINE PHOSPHATASE [3]: 379.67 u/L | ASPARTATE AMINOTRANSFERASE [3]: 95 u/L | BLOOD UREA NITROGEN [3]: 15.67 mg/dL | CARBON DIOXIDE [3]: 26 mmol/L | CHLORIDE [3]: 101 MEQ/L | CHOLESTEROL [3]: 60.33 mg/dL | CREATINE PHOSPHOKINASE [3]: 360.33 u/L | CREATININE [3]: 0.17 mg/dL | GLUCOSE [3]: 162.33 mg/dL | LACTATE DEHYDROGENASE [3]: 326.33 u/L | LIPASE [3]: 8.67 u/L | PHOSPHORUS [3]: 12.63 mg/dL | POTASSIUM [3]: 7.24 MEQ/L | SODIUM [3]: 142.77 MEQ/L | TOTAL BILIRUBIN [3]: 0.27 mg/dL | TOTAL PROTEIN [3]: 5.87 G/DL | URIC ACID [3]: 2 mg/dL | ABSOLUTE BASOPHIL [4]: 0 CELLS/uL | ABSOLUTE EOSINOPHIL [4]: 0 CELLS/uL | ABSOLUTE LYMPHOCYTE [4]: 13599 CELLS/uL | ABSOLUTE MONOCYTE [4]: 187.67 CELLS/uL | ABSOLUTE SEGMENTED NEUTROPHIL [4]: 813.33 CELLS/uL | BASOPHIL [4]: 0% | EOSINOPHIL [4]: 0% | ERYTHROCYTE COUNT [4]: 5.46 x10E6/uL | HEMATOCRIT [4]: 34.73% | HEMOGLOBIN [4]: 13.83 G/DL | LEUKOCYTE COUNT [4]: 14.6 x10E3/uL | LYMPHOCYTE [4]: 93% | MEAN CORPUSCULAR HEMOGLOBIN [4]: 25.37 pg | MEAN CORPUSCULAR HEMOGLOBIN CONCENTRATION [4]: 39.83 G/DL | MEAN CORPUSCULAR VOLUME [4]: 63.7 fL | MONOCYTE [4]: 1.33% | NEUTROPHIL [4]: 5.67% | NUCLEATED RED BLOOD CELLS [4]: 0 /100WBC | PLATELET COUNT [4]: 1349.33 x10E3/uL | ALKALINE PHOSPHATASE [4]: 303.33 u/L | ASPARTATE AMINOTRANSFERASE [4]: 68.67 u/L | BLOOD UREA NITROGEN [4]: 17.67 mg/dL | CARBON DIOXIDE [4]: 27.33 mmol/L | CHLORIDE [4]: 101.33 MEQ/L | CHOLESTEROL [4]: 63.67 mg/dL | CREATINE PHOSPHOKINASE [4]: 199.33 u/L | CREATININE [4]: 0.15 mg/dL | GLUCOSE [4]: 159.33 mg/dL | LACTATE DEHYDROGENASE [4]: 110 u/L | LIPASE [4]: 8.67 u/L | PHOSPHORUS [4]: 11.87 mg/dL | POTASSIUM [4]: 6.75 MEQ/L | SODIUM [4]: 144.03 MEQ/L | TOTAL BILIRUBIN [4]: 0.23 mg/dL | TOTAL PROTEIN [4]: 5.83 G/DL | URIC ACID [4]: 1.47 mg/dL

Source: ChEMBL document CHEMBL3885881, “DrugMatrix”
